Assay in all cases: Test Example 1: herbicidal effect by soil application to paddy field
Format in all cases: in vivo
What all share (details): paddy field soil application; active ingredient 1,000 g per 1 hectare; wettable powder added dropwise to water surface the day after sowing; examined on the 21st day after application

Assay [1] concerns early watergrass (Echinochloa oryzicola Vasing). From the text: (§1) Test Example 1 Test on Herbicidal Effect by Soil Application to Paddy Field In a 100 cm2 plastic pot, paddy field soil was filled. After puddling and leveling, seeds of early watergrass (Echinochloa oryzicola […] (Monochoria vaginalis ([…] Japanese bulrush (Scirpus juncoides Roxb.) were sown, and water was filled to be flooded to a water depth of 3 cm. […] Then, on the 21st day after the application to the plants grew in a greenhouse, the herbicidal effect was examined in accordance with a standard shown in Table 34. [table]

The test system of assay [2] is Japanese bulrush (Scirpus juncoides Roxb.).
Excerpt: as §1

Assay [3] has as its system heartshape false pickerelweed (Monochoria vaginalis (Burm.f.) C.Presl).
Excerpt: as §1

The structures appear in SMILES notation.

`Cn1c(C(F)(F)F)ccc(C(=O)C2=C(O)C(C)(C)CCC2=O)c1=O` [II-2]: the “herbicidal effect, Echinochloa oryzicola Vasing” value in assay [1] is 5 (90% or more of herbicidal effect and crop phytotoxicity). In addition, the “herbicidal effect, Scirpus juncoides Roxb.” value in assay [2] was 5 (90% or more of herbicidal effect and crop phytotoxicity). Besides, the “herbicidal effect, Monochoria vaginalis (Burm. f.) C. Presl” value (shortened to “herbicidal effect, Monochoria vaginalis”) in assay [3] was 5 (90% or more of herbicidal effect and crop phytotoxicity).
Consider `Cn1c(C(F)(F)F)ccc(C(=O)C2=C(Sc3ccccc3)CCCC2=O)c1=O` [II-8], for which the “herbicidal effect, Echinochloa oryzicola Vasing” value in assay [1] is 5 (90% or more of herbicidal effect and crop phytotoxicity). In addition, the “herbicidal effect, Scirpus juncoides Roxb.” value in assay [2] is 5 (90% or more of herbicidal effect and crop phytotoxicity). Besides, the “herbicidal effect, Monochoria vaginalis” value in assay [3] is 5 (90% or more of herbicidal effect and crop phytotoxicity).
Consider `Cc1ccc(SC2=C(C(=O)c3ccc(C(F)(F)F)n(C)c3=O)C(=O)CCC2)cc1` [II-9], for which the “herbicidal effect, Echinochloa oryzicola Vasing” value in assay [1] is 5 (90% or more of herbicidal effect and crop phytotoxicity). Also, the “herbicidal effect, Scirpus juncoides Roxb.” value in assay [2] is 5 (90% or more of herbicidal effect and crop phytotoxicity). Moreover, the “herbicidal effect, Monochoria vaginalis” value in assay [3] is 5 (90% or more of herbicidal effect and crop phytotoxicity).
As to `Cn1c(C(F)(F)F)ccc(C(=O)C2=C(Sc3ccccc3Cl)CCCC2=O)c1=O` [II-11], the “herbicidal effect, Echinochloa oryzicola Vasing” value in assay [1] is 5 (90% or more of herbicidal effect and crop phytotoxicity). The “herbicidal effect, Scirpus juncoides Roxb.” value in assay [2] is 5 (90% or more of herbicidal effect and crop phytotoxicity). Further, the “herbicidal effect, Monochoria vaginalis” value in assay [3] is 5 (90% or more of herbicidal effect and crop phytotoxicity).
For `Cn1c(C(F)(F)F)ccc(C(=O)C2=C(Sc3cccc(Cl)c3)CCCC2=O)c1=O` [II-12], the “herbicidal effect, Echinochloa oryzicola Vasing” value in assay [1] is 5 (90% or more of herbicidal effect and crop phytotoxicity). In addition, the “herbicidal effect, Scirpus juncoides Roxb.” value in assay [2] was 5 (90% or more of herbicidal effect and crop phytotoxicity). In assay [3], the “herbicidal effect, Monochoria vaginalis” value was 5 (90% or more of herbicidal effect and crop phytotoxicity).
As for `Cn1c(C(F)(F)F)ccc(C(=O)C2=C(Sc3ccc(Cl)cc3)CCCC2=O)c1=O` [II-13], in assay [1], the “herbicidal effect, Echinochloa oryzicola Vasing” value is 5 (90% or more of herbicidal effect and crop phytotoxicity). Moreover, the “herbicidal effect, Scirpus juncoides Roxb.” value in assay [2] was 5 (90% or more of herbicidal effect and crop phytotoxicity). For the same molecule, in assay [3], the “herbicidal effect, Monochoria vaginalis” value is 5 (90% or more of herbicidal effect and crop phytotoxicity).
`Cn1c(C(F)(F)F)ccc(C(=O)C2=C(Sc3c(Cl)cccc3Cl)CCCC2=O)c1=O` [II-15]: in assay [1], the “herbicidal effect, Echinochloa oryzicola Vasing” value was 5 (90% or more of herbicidal effect and crop phytotoxicity). Also, the “herbicidal effect, Scirpus juncoides Roxb.” value in assay [2] was 5 (90% or more of herbicidal effect and crop phytotoxicity). Besides, the “herbicidal effect, Monochoria vaginalis” value in assay [3] was 5 (90% or more of herbicidal effect and crop phytotoxicity).
Take `Cn1c(C(F)(F)F)ccc(C(=O)C2=C(Sc3c(Cl)c(Cl)c(Cl)c(Cl)c3Cl)CCCC2=O)c1=O` [II-16]: in assay [1], the “herbicidal effect, Echinochloa oryzicola Vasing” value was 5 (90% or more of herbicidal effect and crop phytotoxicity). For the same molecule, the “herbicidal effect, Scirpus juncoides Roxb.” value in assay [2] was 5 (90% or more of herbicidal effect and crop phytotoxicity). For the same molecule, the “herbicidal effect, Monochoria vaginalis” value in assay [3] was 5 (90% or more of herbicidal effect and crop phytotoxicity).
Turning to `Cn1c(C(F)(F)F)ccc(C(=O)C2=C(n3cccn3)CCCC2=O)c1=O` [II-17], the “herbicidal effect, Echinochloa oryzicola Vasing” value in assay [1] was 5 (90% or more of herbicidal effect and crop phytotoxicity). The “herbicidal effect, Scirpus juncoides Roxb.” value in assay [2] is 5 (90% or more of herbicidal effect and crop phytotoxicity). Moreover, in assay [3], the “herbicidal effect, Monochoria vaginalis” value is 5 (90% or more of herbicidal effect and crop phytotoxicity).
Regarding `Cn1c(C(F)(F)F)ccc(C(=O)C2=C(Sc3ccccc3)CC(C)(C)CC2=O)c1=O` [II-19], the “herbicidal effect, Echinochloa oryzicola Vasing” value in assay [1] was 5 (90% or more of herbicidal effect and crop phytotoxicity). Besides, the “herbicidal effect, Scirpus juncoides Roxb.” value in assay [2] is 5 (90% or more of herbicidal effect and crop phytotoxicity). In assay [3], the “herbicidal effect, Monochoria vaginalis” value was 5 (90% or more of herbicidal effect and crop phytotoxicity).
On to `CC(CCn1c(C(F)(F)F)ccc(C(=O)C2=C(O)C(C)CCC(C)C2=O)c1=O)=C(F)F` (stereo not drawn) [II-27], for which the “herbicidal effect, Echinochloa oryzicola Vasing” value in assay [1] is 5 (90% or more of herbicidal effect and crop phytotoxicity). Further, in assay [2], the “herbicidal effect, Scirpus juncoides Roxb.” value is 5 (90% or more of herbicidal effect and crop phytotoxicity). In addition, the “herbicidal effect, Monochoria vaginalis” value in assay [3] is 5 (90% or more of herbicidal effect and crop phytotoxicity).
In the case of `COCCCn1c(C(F)(F)F)ccc(C(=O)C2=C(Sc3ccccc3)CCCC2=O)c1=O` [II-30], in assay [1], the “herbicidal effect, Echinochloa oryzicola Vasing” value is 5 (90% or more of herbicidal effect and crop phytotoxicity). Also, in assay [2], the “herbicidal effect, Scirpus juncoides Roxb.” value was 5 (90% or more of herbicidal effect and crop phytotoxicity). Further, the “herbicidal effect, Monochoria vaginalis” value in assay [3] is 5 (90% or more of herbicidal effect and crop phytotoxicity).
As for `COC1=C(C(=O)c2ccc(C(F)(F)F)n(C)c2=O)C(=O)CCC1C` (stereo not drawn) [II-35], in assay [1], the “herbicidal effect, Echinochloa oryzicola Vasing” value is 5 (90% or more of herbicidal effect and crop phytotoxicity). Also, the “herbicidal effect, Scirpus juncoides Roxb.” value in assay [2] is 5 (90% or more of herbicidal effect and crop phytotoxicity). The “herbicidal effect, Monochoria vaginalis” value in assay [3] is 5 (90% or more of herbicidal effect and crop phytotoxicity).
For `CCCS(=O)(=O)Oc1c(C(=O)c2ccc(C(F)(F)F)n(CC(C)OCc3ccccc3)c2=O)cnn1C` (stereo not drawn) [IV-49], the “herbicidal effect, Echinochloa oryzicola Vasing” value in assay [1] is 5 (90% or more of herbicidal effect and crop phytotoxicity). Also, the “herbicidal effect, Scirpus juncoides Roxb.” value in assay [2] is 3 (50 to less than 70% of herbicidal effect and crop phytotoxicity). In assay [3], the “herbicidal effect, Monochoria vaginalis” value is 5 (90% or more of herbicidal effect and crop phytotoxicity).
Turning to `Cn1ncc(C(=O)c2ccc(C(F)(F)F)n(CC[S+](C)[O-])c2=O)c1O` (stereo not drawn) [IV-52], the “herbicidal effect, Echinochloa oryzicola Vasing” value in assay [1] was 4 (70 to less than 90% of herbicidal effect and crop phytotoxicity). Also, the “herbicidal effect, Scirpus juncoides Roxb.” value in assay [2] was 4 (70 to less than 90% of herbicidal effect and crop phytotoxicity). Moreover, the “herbicidal effect, Monochoria vaginalis” value in assay [3] was 4 (70 to less than 90% of herbicidal effect and crop phytotoxicity).
`CCCS(=O)(=O)Oc1c(C(=O)c2ccc(C(F)(F)F)n(CC[S+](C)[O-])c2=O)cnn1C` (stereo not drawn) [IV-53]: the “herbicidal effect, Echinochloa oryzicola Vasing” value in assay [1] was 4 (70 to less than 90% of herbicidal effect and crop phytotoxicity). In assay [2], the “herbicidal effect, Scirpus juncoides Roxb.” value was 4 (70 to less than 90% of herbicidal effect and crop phytotoxicity). Besides, in assay [3], the “herbicidal effect, Monochoria vaginalis” value is 4 (70 to less than 90% of herbicidal effect and crop phytotoxicity).
With `CSCCCn1c(C(F)(F)F)ccc(C(=O)c2cnn(C)c2O)c1=O` [IV-56], the “herbicidal effect, Echinochloa oryzicola Vasing” value in assay [1] is 5 (90% or more of herbicidal effect and crop phytotoxicity). In addition, in assay [2], the “herbicidal effect, Scirpus juncoides Roxb.” value was 5 (90% or more of herbicidal effect and crop phytotoxicity). Further, the “herbicidal effect, Monochoria vaginalis” value in assay [3] was 5 (90% or more of herbicidal effect and crop phytotoxicity).
Turning to `CCCS(=O)(=O)Oc1c(C(=O)c2ccc(C(F)(F)F)n(CCCSC)c2=O)cnn1C` [IV-57], the “herbicidal effect, Echinochloa oryzicola Vasing” value in assay [1] was 5 (90% or more of herbicidal effect and crop phytotoxicity). Further, the “herbicidal effect, Scirpus juncoides Roxb.” value in assay [2] is 2 (30 to less than 50% of herbicidal effect and crop phytotoxicity). The “herbicidal effect, Monochoria vaginalis” value in assay [3] is 5 (90% or more of herbicidal effect and crop phytotoxicity).
With `CCCS(=O)(=O)Oc1c(C(=O)c2ccc(C(F)(F)F)n(CCC[S+](C)[O-])c2=O)cnn1C` (stereo not drawn) [IV-59], in assay [1], the “herbicidal effect, Echinochloa oryzicola Vasing” value was 4 (70 to less than 90% of herbicidal effect and crop phytotoxicity). In addition, the “herbicidal effect, Scirpus juncoides Roxb.” value in assay [2] was 3 (50 to less than 70% of herbicidal effect and crop phytotoxicity). Further, in assay [3], the “herbicidal effect, Monochoria vaginalis” value was 4 (70 to less than 90% of herbicidal effect and crop phytotoxicity).
Turning to `Cn1ncc(C(=O)c2ccc(C(F)(F)F)n(CCCS(C)(=O)=O)c2=O)c1O` [IV-60], the “herbicidal effect, Echinochloa oryzicola Vasing” value in assay [1] is 5 (90% or more of herbicidal effect and crop phytotoxicity). Also, in assay [2], the “herbicidal effect, Scirpus juncoides Roxb.” value is 5 (90% or more of herbicidal effect and crop phytotoxicity). Also, the “herbicidal effect, Monochoria vaginalis” value in assay [3] was 5 (90% or more of herbicidal effect and crop phytotoxicity).
Turning to `CCCS(=O)(=O)Oc1c(C(=O)c2ccc(C(F)(F)F)n(CCCS(C)(=O)=O)c2=O)cnn1C` [IV-61], the “herbicidal effect, Echinochloa oryzicola Vasing” value in assay [1] is 5 (90% or more of herbicidal effect and crop phytotoxicity). In addition, the “herbicidal effect, Scirpus juncoides Roxb.” value in assay [2] is 5 (90% or more of herbicidal effect and crop phytotoxicity). In assay [3], the “herbicidal effect, Monochoria vaginalis” value was 5 (90% or more of herbicidal effect and crop phytotoxicity).
For the molecule `COc1ccccc1-n1c(C(F)(F)F)ccc(C(=O)c2cnn(C)c2O)c1=O` [IV-64], the “herbicidal effect, Echinochloa oryzicola Vasing” value in assay [1] was 5 (90% or more of herbicidal effect and crop phytotoxicity). In addition, the “herbicidal effect, Scirpus juncoides Roxb.” value in assay [2] is 5 (90% or more of herbicidal effect and crop phytotoxicity). In assay [3], the “herbicidal effect, Monochoria vaginalis” value is 5 (90% or more of herbicidal effect and crop phytotoxicity).
Turning to `COc1ccc(-n2c(C(F)(F)F)ccc(C(=O)c3cnn(C)c3O)c2=O)cc1` [IV-66], the “herbicidal effect, Echinochloa oryzicola Vasing” value in assay [1] is 5 (90% or more of herbicidal effect and crop phytotoxicity). In assay [2], the “herbicidal effect, Scirpus juncoides Roxb.” value is 5 (90% or more of herbicidal effect and crop phytotoxicity). Further, in assay [3], the “herbicidal effect, Monochoria vaginalis” value is 5 (90% or more of herbicidal effect and crop phytotoxicity).

Values taken from patent US8076487B2, “Pyridone derivative and herbicide” (Kumiai Chemical Industry Co., Ltd., priority 2006, dated 2011).
